Several values for one entry are separate records, joined by “and”; a condition that tells them apart may be missing. Equal entries are not always repeated. Results filed as inconclusive are left out. Where a SMILES comes first, the peptide text is derived from it. Bridges are numbered along the chain shown (N, C = ends). Roman numbers before positions name the chains, in order. [ ]: non-standard residue; d: D form. The star is where a group is joined. Quinoxaline2carbonyl = O=C(c1cnc2ccccc2n1)*; NMeV = CN[CH](C(=O)O)C(C)C; NMeC = CN[CH](CS)C(=O)O
Test system: BDF1 mice, B16 melanoma s.c., survival/tumor T/C
Test: NCI In Vivo Anticancer Drug Screen. Data for tumor model B16 Melanoma (subcutaneous) in B6D2F1 (BDF1) mice
Protocol: The antitumor activity of compounds was measured in mice bearing transplantable tumors. Survival or tumor size were measured and the results are expressed as the measurement made in the treated group (T) divided by the measurement made in the vehicle treated control group (C). The tumor model used in this assay is B16 Melanoma (subcutaneous) in B6D2F1 (BDF1) mice

[1] = endpoint: median survival time, dose: 1.0 mg/kg/injection, schedule: Q01DX009 (ip), vehicle: saline, higher = longer survival
[2] = endpoint: median survival time, dose: 2.0 mg/kg/injection, schedule: Q01DX009 (ip), vehicle: saline, higher = longer survival
[3] = endpoint: median survival time, dose: 4.0 mg/kg/injection, schedule: Q01DX009 (ip), vehicle: saline, higher = longer survival
[4] = endpoint: median survival time, dose: 8.0 mg/kg/injection, schedule: Q01DX009 (ip), vehicle: saline, higher = longer survival

Cc1c(N)nc(C(CC(N)=O)NCC(N)C(N)=O)nc1C(=O)NC(C(=O)NC(C)C(O)C(C)C(=O)NC(C(=O)NCCc1nc(-c2nc(C(=O)NCCCNC(C)c3ccccc3)cs2)cs1)C(C)O)C(OC1OC(CO)C(O)C(O)C1OC1OC(CO)C(O)C(OC(N)=O)C1O)c1cnc[nH]1 (stereo not drawn)
T/C (endpoint: median survival time, dose: 0.13 mg/kg/injection, schedule: Q01DX010 (ip), vehicle: water, higher = longer survival): 97 % of control | T/C (endpoint: median survival time, dose: 0.25 mg/kg/injection, schedule: Q01DX009 (ip), vehicle: water, higher = longer survival): 105 % of control and 120 % of control | T/C (endpoint: median survival time, dose: 0.25 mg/kg/injection, schedule: Q01DX010 (ip), vehicle: water, higher = longer survival): 97 % of control | T/C (endpoint: median survival time, dose: 0.5 mg/kg/injection, schedule: Q01DX009 (ip), vehicle: water, higher = longer survival): 100 % of control | T/C (endpoint: median survival time, dose: 0.5 mg/kg/injection, schedule: Q01DX010 (ip), vehicle: water, higher = longer survival): 124 % of control | T/C (endpoint: median survival time, dose: 1.0 mg/kg/injection, schedule: Q01DX009 (ip), vehicle: water, higher = longer survival): 184 % of control | T/C (endpoint: median survival time, dose: 1.0 mg/kg/injection, schedule: Q01DX010 (ip), vehicle: water, higher = longer survival): 112 % of control | T/C (endpoint: median survival time, dose: 2.0 mg/kg/injection, schedule: Q01DX010 (ip), vehicle: water, higher = longer survival): 112 % of control | T/C (endpoint: median survival time, dose: 4.0 mg/kg/injection, schedule: Q01DX010 (ip), vehicle: water, higher = longer survival): 98 % of control | T/C (endpoint: median survival time, dose: 8.0 mg/kg/injection, schedule: Q01DX009 (ip), vehicle: water, higher = longer survival): 106 % of control

CN(C)/N=N/c1nc[nH]c1C(N)=O
T/C (endpoint: median survival time, dose: 12.5 mg/kg/injection, schedule: Q01DX009 (ip), vehicle: Klucel (hydroxypropylcellulose) (HPC), higher = longer survival): 101 % of control | T/C (endpoint: median survival time, dose: 25.0 mg/kg/injection, schedule: Q01DX009 (ip), vehicle: Klucel (hydroxypropylcellulose) (HPC), higher = longer survival): 89 % of control | T/C (endpoint: median survival time, dose: 37.5 mg/kg/injection, schedule: Q01DX009 (ip), vehicle: saline with Tween-80, higher = longer survival): 175 % of control | T/C (endpoint: median survival time, dose: 37.5 mg/kg/injection, schedule: Q01DX009 (ip), vehicle: saline, higher = longer survival): 110 % of control | T/C (endpoint: median survival time, dose: 50.0 mg/kg/injection, schedule: Q01DX009 (ip), vehicle: Klucel (hydroxypropylcellulose) (HPC), higher = longer survival): 119 % of control | T/C (endpoint: median survival time, dose: 75.0 mg/kg/injection, schedule: Q01DX009 (ip), vehicle: Klucel (hydroxypropylcellulose) (HPC), higher = longer survival): 160 % of control | T/C (endpoint: median survival time, dose: 75.0 mg/kg/injection, schedule: Q01DX009 (ip), vehicle: saline with Tween-80, higher = longer survival): 156 % of control | T/C (endpoint: median survival time, dose: 75.0 mg/kg/injection, schedule: Q01DX009 (ip), vehicle: saline, higher = longer survival): 113 % of control | T/C (endpoint: median survival time, dose: 100.0 mg/kg/injection, schedule: Q01DX009 (ip), vehicle: Klucel (hydroxypropylcellulose) (HPC), higher = longer survival): 109 % of control | T/C (endpoint: median survival time, dose: 150.0 mg/kg/injection, schedule: Q01DX009 (ip), vehicle: Klucel (hydroxypropylcellulose) (HPC), higher = longer survival): 91 % of control | T/C (endpoint: median survival time, dose: 150.0 mg/kg/injection, schedule: Q01DX009 (ip), vehicle: saline with Tween-80, higher = longer survival): 154 % of control | T/C (endpoint: median tumor weight (est.), dose: 37.0 mg/kg/injection, schedule: Q01DX009 (ip), vehicle: saline with Tween-80, higher = larger tumour): 50 % of control | T/C (endpoint: median tumor weight (est.), dose: 75.0 mg/kg/injection, schedule: Q01DX009 (ip), vehicle: saline with Tween-80, higher = larger tumour): 110 % of control | T/C (endpoint: median tumor weight (est.), dose: 150.0 mg/kg/injection, schedule: Q01DX009 (ip), vehicle: Klucel (hydroxypropylcellulose) (HPC), higher = larger tumour): 59 % of control | T/C (endpoint: median tumor weight (est.), dose: 150.0 mg/kg/injection, schedule: Q01DX009 (ip), vehicle: saline with Tween-80, higher = larger tumour): 42 % of control | T/C (endpoint: median tumor weight (est.), dose: 300.0 mg/kg/injection, schedule: Q01DX009 (ip), vehicle: saline with Tween-80, higher = larger tumour): 43 % of control

COc1cccc2c1C(=O)c1c(O)c3c(c(O)c1C2=O)C[C@@](O)(C(=O)CO)C[C@@H]3OC1CC(N)C(O)C(C)O1 (stereo partly drawn)
T/C (endpoint: median survival time, dose: 0.12 mg/kg/injection, schedule: Q01DX009 (ip), vehicle: saline, higher = longer survival): 100 % of control and 111 % of control | T/C (endpoint: median survival time, dose: 1.0 mg/kg/injection, schedule: Q01DX008 (ip), vehicle: saline, higher = longer survival): 100 % of control | T/C (endpoint: median survival time, dose: 1.5 mg/kg/injection, schedule: Q01DX008 (ip), vehicle: saline, higher = longer survival): 96 % of control

O=c1[nH]cc(N(CCCl)CCCl)c(=O)[nH]1
T/C (endpoint: median survival time, dose: 0.25 mg/kg/injection, schedule: Q01DX009 (ip), vehicle: saline with Tween-80, higher = longer survival): 109 % of control | T/C (endpoint: median survival time, dose: 0.5 mg/kg/injection, schedule: Q01DX009 (ip), vehicle: saline with Tween-80, higher = longer survival): 124 % of control

O=NN(CCCl)C(=O)NCCCl
T/C (endpoint: median survival time, dose: 0.5 mg/kg/injection, schedule: Q01DX009 (ip), vehicle: saline, higher = longer survival): 100 % of control | T/C [1]: 106 % of control | T/C (endpoint: median survival time, dose: 1.5 mg/kg/injection, schedule: Q02DX009 (ip), vehicle: saline + alcohol, higher = longer survival): 151 % of control | T/C [2]: 117 % of control | T/C (endpoint: median survival time, dose: 3.11 mg/kg/injection, schedule: Q01DX007 (ip), vehicle: Klucel (hydroxypropylcellulose) (HPC), higher = longer survival): 117 % of control | T/C [3]: 184 % of control | T/C [4]: 167 % of control | T/C (endpoint: median survival time, dose: 14.4 mg/kg/injection, schedule: Q01DX007 (ip), vehicle: Klucel (hydroxypropylcellulose) (HPC), higher = longer survival): 121 % of control

Cc1cc(OCc2nc(N)nc(N)c2-c2ccc(Cl)c(Cl)c2)ccc1NS(=O)(=O)c1cccc(S(=O)(=O)F)c1
T/C (endpoint: median survival time, dose: 117.0 mg/kg/injection, schedule: Q04DX003 (ip), vehicle: saline, higher = longer survival): 95 % of control | T/C (endpoint: median survival time, dose: 176.0 mg/kg/injection, schedule: Q04DX003 (ip), vehicle: saline, higher = longer survival): 118 % of control

CC1NC(=O)C(NC(=O)c2cnc3ccccc3n2)COC(=O)C(C(C)C)N(C)C(=O)C2CSSCC(C(=O)N(C)C(C(C)C)C(=O)OCC(NC(=O)c3cnc4ccccc4n3)C(=O)NC(C)C(=O)N2C)N(C)C1=O (stereo not drawn) (I: Quinoxaline2carbonyl-SA[NMeC][NMeV] / II: Quinoxaline2carbonyl-SA[NMeC][NMeV]; ester I:1-II:C, I:C-II:1; disulfide I:3-II:3; configuration not given here)
T/C (endpoint: median survival time, dose: 11.2 micrograms/kg/injection, schedule: Q01DX009 (ip), vehicle: Klucel (hydroxypropylcellulose) (HPC), higher = longer survival): 91 % of control | T/C (endpoint: median survival time, dose: 22.5 micrograms/kg/injection, schedule: Q01DX009 (ip), vehicle: Klucel (hydroxypropylcellulose) (HPC), higher = longer survival): 107 % of control | T/C (endpoint: median survival time, dose: 45.0 micrograms/kg/injection, schedule: Q01DX009 (ip), vehicle: Klucel (hydroxypropylcellulose) (HPC), higher = longer survival): 109 % of control | T/C (endpoint: median survival time, dose: 90.0 micrograms/kg/injection, schedule: Q01DX009 (ip), vehicle: Klucel (hydroxypropylcellulose) (HPC), higher = longer survival): 104 % of control

COC(=O)C(N)CCCCNc1ccc2c(cc1=O)C(NC(C)=O)CCc1cc(OC)c(OC)c(OC)c1-2 (stereo not drawn)
T/C (endpoint: median survival time, dose: 53.0 mg/kg/injection, schedule: Q01DX009 (ip), vehicle: saline, higher = longer survival): 118 % of control | T/C (endpoint: median survival time, dose: 80.0 mg/kg/injection, schedule: Q01DX009 (ip), vehicle: saline, higher = longer survival): 90 % of control | T/C (endpoint: median survival time, dose: 120.0 mg/kg/injection, schedule: Q01DX009 (ip), vehicle: saline, higher = longer survival): 106 % of control | T/C (endpoint: median survival time, dose: 180.0 mg/kg/injection, schedule: Q01DX009 (ip), vehicle: saline, higher = longer survival): 90 % of control

O
T/C (endpoint: median survival time, dose: 50.0 mg/kg/injection, schedule: Q02DX009 (ip), vehicle: saline, higher = longer survival): 94 % of control | T/C (endpoint: median survival time, dose: 100.0 mg/kg/injection, schedule: Q02DX009 (ip), vehicle: saline, higher = longer survival): 101 % of control | T/C (endpoint: median survival time, dose: 200.0 mg/kg/injection, schedule: Q02DX009 (ip), vehicle: saline, higher = longer survival): 118 % of control | T/C (endpoint: median survival time, dose: 400.0 mg/kg/injection, schedule: Q02DX009 (ip), vehicle: saline, higher = longer survival): 98 % of control

O=CC(NC(=O)N(CCCl)N=O)C(O)C(O)C(O)CO (stereo not drawn)
T/C (endpoint: median survival time, dose: 3.0 mg/kg/injection, schedule: Q01DX009 (ip), vehicle: saline, higher = longer survival): 115 % of control | T/C (endpoint: median survival time, dose: 3.3 mg/kg/injection, schedule: Q01DX009 (ip), vehicle: saline, higher = longer survival): 115 % of control | T/C (endpoint: median survival time, dose: 4.5 mg/kg/injection, schedule: Q01DX009 (ip), vehicle: saline, higher = longer survival): 112 % of control | T/C (endpoint: median survival time, dose: 4.9 mg/kg/injection, schedule: Q01DX009 (ip), vehicle: saline, higher = longer survival): 102 % of control | T/C (endpoint: median survival time, dose: 6.8 mg/kg/injection, schedule: Q01DX009 (ip), vehicle: saline, higher = longer survival): 89 % of control | T/C (endpoint: median survival time, dose: 7.4 mg/kg/injection, schedule: Q01DX009 (ip), vehicle: saline, higher = longer survival): 100 % of control | T/C (endpoint: median survival time, dose: 10.0 mg/kg/injection, schedule: Q01DX009 (ip), vehicle: saline, higher = longer survival): 122 % of control | T/C (endpoint: median survival time, dose: 12.0 mg/kg/injection, schedule: Q04DX003 (ip), vehicle: saline, higher = longer survival): 112 % of control | T/C (endpoint: median survival time, dose: 13.0 mg/kg/injection, schedule: Q01DX001 (ip), vehicle: saline, higher = longer survival): 118 % of control | T/C (endpoint: median survival time, dose: 16.0 mg/kg/injection, schedule: Q01DX001 (ip), vehicle: saline, higher = longer survival): 112 % of control | T/C (endpoint: median survival time, dose: 18.0 mg/kg/injection, schedule: Q04DX003 (ip), vehicle: saline, higher = longer survival): 106 % of control | T/C (endpoint: median survival time, dose: 20.0 mg/kg/injection, schedule: Q01DX001 (ip), vehicle: saline, higher = longer survival): 96 % of control | T/C (endpoint: median survival time, dose: 24.0 mg/kg/injection, schedule: Q01DX001 (ip), vehicle: saline, higher = longer survival): 102 % of control | T/C (endpoint: median survival time, dose: 27.0 mg/kg/injection, schedule: Q04DX003 (ip), vehicle: saline, higher = longer survival): 108 % of control | T/C (endpoint: median survival time, dose: 36.0 mg/kg/injection, schedule: Q01DX001 (ip), vehicle: saline, higher = longer survival): 112 % of control

Nc1nc([Se])c2ncn(C3OC(CO)C(O)C3O)c2n1 (stereo not drawn)
T/C [1]: 108 % of control | T/C [2]: 98 % of control and 121 % of control | T/C [3]: 121 % of control | T/C [4]: 108 % of control | T/C (endpoint: median survival time, dose: 16.0 mg/kg/injection, schedule: Q01DX009 (ip), vehicle: saline, higher = longer survival): 111 % of control

Reference: PubChem BioAssay AID194 (DTP/NCI, 2004)
